# According to patent publication US7649001B2:
# Numbering of substitutions follows the chain as printed. Counter-ions that a name gives are not always drawn.
# Tests used:
# [1] = biological target: T1, wild type androgen receptor (AR) (Homo sapiens, UniProt P10275); assay: AR-binding inhibition test (wild type); conditions: read-out: Inhibition rate (%) at 100 nM Wild type
# T1 sequence (P10275 1-920): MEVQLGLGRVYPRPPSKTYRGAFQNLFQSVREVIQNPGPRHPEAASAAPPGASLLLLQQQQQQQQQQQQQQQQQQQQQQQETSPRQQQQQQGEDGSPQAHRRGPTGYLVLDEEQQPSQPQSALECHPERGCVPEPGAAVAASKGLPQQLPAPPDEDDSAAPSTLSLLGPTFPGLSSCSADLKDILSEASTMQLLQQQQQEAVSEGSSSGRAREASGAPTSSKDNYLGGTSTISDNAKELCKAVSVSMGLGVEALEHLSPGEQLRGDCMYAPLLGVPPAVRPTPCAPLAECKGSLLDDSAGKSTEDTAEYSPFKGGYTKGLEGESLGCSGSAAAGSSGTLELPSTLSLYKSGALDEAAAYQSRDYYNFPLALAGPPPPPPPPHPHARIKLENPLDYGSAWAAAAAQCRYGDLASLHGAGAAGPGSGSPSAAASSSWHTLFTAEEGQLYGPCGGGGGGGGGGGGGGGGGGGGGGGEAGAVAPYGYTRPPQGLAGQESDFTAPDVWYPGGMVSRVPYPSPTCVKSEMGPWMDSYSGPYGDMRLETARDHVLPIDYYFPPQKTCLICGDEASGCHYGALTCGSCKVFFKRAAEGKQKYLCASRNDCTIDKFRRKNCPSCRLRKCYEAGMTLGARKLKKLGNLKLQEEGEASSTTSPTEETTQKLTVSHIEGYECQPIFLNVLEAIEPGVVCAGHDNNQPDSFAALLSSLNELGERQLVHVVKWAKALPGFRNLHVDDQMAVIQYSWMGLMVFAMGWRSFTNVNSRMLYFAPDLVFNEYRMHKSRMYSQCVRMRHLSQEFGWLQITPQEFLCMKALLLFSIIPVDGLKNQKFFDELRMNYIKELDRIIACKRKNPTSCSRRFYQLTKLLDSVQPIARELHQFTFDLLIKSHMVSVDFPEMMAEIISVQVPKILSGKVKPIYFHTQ
# [2] = biological target: T2, LNCaP type mutant androgen receptor (AR) (Homo sapiens, UniProt P10275, T878A); assay: AR-binding inhibition test (LNCaP type); conditions: read-out: Inhibition rate (%) at 100 nM LNCaP type
# T2 sequence (P10275 1-920 T878A): T1 sequence (P10275 1-920) with T878A
# [3] = system: Human prostate cancer cell strain LNCaP-FGC; assay: cells; format: cell-based; conditions: 72 h, read-out: Promotion rate (%) on PSA production at 100 nM
Compound,inhibition at 0.1 µM [1],inhibition at 0.1 µM [2],activation at 0.1 µM [3],melting point
"N#Cc1ccc(N2CCCC2)c2ccccc12 [Compound 1, 4-(1-pyrrolidinyl)-1-naphthonitrile]",88%,78%,,
"C[C@H]1CCCN1c1ccc(C#N)c2ccccc12 [Compound 85, 4-[(2S)-2-methyl-1-pyrrolidinyl]-1-naphthonitrile]",95%,99%,92%,
"CC1CCCN1c1ccc(C#N)c2occc12 (centres unmarked) [Compound 95, 4-(2-methyl-1-pyrrolidinyl)-1-benzofuran-7-carbonitrile]",92%,105%,,82 to 83 °C
"N#Cc1ccc(N2CCC(O)C2)c2ccccc12 (centres unmarked) [Compound 18, 4-(3-hydroxy-1-pyrrolidinyl)-1-naphthonitrile]",96%,79%,,138 to 139 °C
"C[C@H]1[C@H](O)CCN1c1ccc(C#N)c2ccccc12 [Compound 113, 4-[(2S,3R)-3-hydroxy-2-methyl-1-pyrrolidinyl]-1-naphthonitrile]",97%,98%,88%,
"N#Cc1ccc(N2CCCC(CO)C2)c2ccccc12 (centres unmarked) [Compound 19, 4-[3-(hydroxymethyl)-1-piperidinyl]-1-naphthonitrile]",75%,91%,70%,
CO[C@@H]1C[C@H](C)N(c2ccc(C#N)c3ccccc23)C1,,,,88 to 89 °C
N#Cc1c(Br)cc(N2CCCCC2)c2ccccc12,,,,179 to 180 °C
"CC(C)[C@H]1CCCN1c1ccc(C#N)c2ccccc12 [Compound 144, 4-[(2R)-2-isopropyl-1-pyrrolidinyl]-1-naphthonitrile]",103%,102%,87%,
"N#Cc1ccc(N2CCCCC2)c2ccccc12 [Compound 3, 4-(1-piperidinyl)-1-naphthonitrile]",97%,97%,90%,
"N#Cc1ccc(N2CCC(F)C2)c2ccccc12 (centres unmarked) [Compound 99, 4-(3-fluoro-1-pyrrolidinyl)-1-naphthonitrile]",98%,92%,83%,
"N#Cc1ccc(N2CCC(CO)C2)c2ccccc12 (centres unmarked) [Compound 50, 4-[3-(hydroxymethyl)pyrrolidin-1-yl]-1-naphthonitrile hydrochloride]",91%,102%,88%,
"CO[C@@H]1CCN(c2ccc(C#N)c3ccccc23)[C@H]1C [Compound 139, 4-[(2S,3R)-3-methoxy-2-methyl-1-pyrrolidinyl]-1-naphthonitrile]",95%,99%,73%,
"CC1(CO)CCCN(c2ccc(C#N)c3ccccc23)C1 (centres unmarked) [Compound 56, 4-[3-(hydroxymethyl)-3-methyl-1-piperidinyl]-1-naphthonitrile]",80%,91%,96%,
"C=C[C@H]1CCCN1c1ccc(C#N)c2ccccc12 [Compound 81, 4-[(2R)-2-vinyl-1-pyrrolidinyl]-1-naphthonitrile]",104%,100%,98%,
"COC[C@H]1CCCN1c1ccc(C#N)c2ccccc12 [Compound 45, 4-[(2R)-2-(methoxymethyl)pyrrolidin-1-yl]-1-naphthonitrile hydrochloride]",105%,110%,,

Compound,inhibition at 0.1 µM [1],inhibition at 0.1 µM [2],activation at 0.1 µM [3],melting point
CN1C(=O)CCN1c1ccc(C#N)c2ccccc12,,,,192 to 193 °C
"N#Cc1ccc(N2CCCCC2)c2ccsc12 [Compound 73, 4-(1-piperidinyl)-1-benzothiophene-7-carbonitrile]",95%,95%,,99 to 100 °C
"C[C@H]1[C@@H](CO)CCN1c1ccc(C#N)c2ccccc12 [Compound 107, 4-[(2S,3S)-3-(hydroxymethyl)-2-methyl-1-pyrrolidinyl]-1-naphthonitrile]",95%,93%,95%,
"C=C[C@@H]1CCCN1c1ccc(C#N)c2ccccc12 [Compound 82, 4-[(2S)-2-vinyl-1-pyrrolidinyl]-1-naphthonitrile]",85%,94%,,
"N#Cc1ccc(N2CCC(CCO)C2)c2ccccc12 (centres unmarked) [Compound 141, 4-[3-(2-hydroxyethyl)-1-pyrrolidinyl]-1-naphthonitrile]",96%,101%,87%,
"C[C@H]1[C@@H](O)CCN1c1ccc(C#N)c2sccc12 [Compound 118, 4-[(2S,3S)-3-hydroxy-2-methyl-1-pyrrolidinyl]-1-benzothiophene-7-carbonitrile]",96%,95%,88%,
"COC[C@H]1CCCN1c1ccc(C#N)c2ccccc12 (as salt: hydrochloride) [Compound 45, 4-[(2R)-2-(methoxymethyl)pyrrolidin-1-yl]-1-naphthonitrile hydrochloride]",,,,88 to 89 °C
"CC1CCCN1c1ccc(C#N)c2sccc12 (centres unmarked) [Compound 76, 4-(2-methyl-1-pyrrolidinyl)-1-benzothiophene-7-carbonitrile]",102%,97%,85%,
C[C@H]1[C@@H](C(N)=O)CCN1c1ccc(C#N)c2ccccc12,,,,204 to 206 °C
C[C@H]1[C@@H](C#N)CCN1c1ccc(C#N)c2ccccc12,,,,143 to 145 °C
"CC[C@@H]1CCCN1c1ccc(C#N)c2ccccc12 [Compound 84, 4-[(2R)-2-ethyl-1-pyrrolidinyl]-1-naphthonitrile]",88%,93%,,
"N#Cc1ccc(N2CCCCCC2)c2ccccc12 [Compound 10, 4-(1-azepaneyl)-1-naphthonitrile]",112%,144%,75%,
"CC[C@H]1CCCN1c1ccc(C#N)c2ccccc12 [Compound 83, 4-[(2S)-2-ethyl-1-pyrrolidinyl]-1-naphthonitrile]",95%,102%,95%,
"C[C@H]1[C@@H](O)CCN1c1ccc(C#N)c2ccccc12 [Compound 116, 4-[(2S,3S)-3-hydroxy-2-methyl-1-pyrrolidinyl]-1-naphthonitrile]",99%,94%,84%,
"CC1CCCN1c1ccc(C#N)c2ccccc12 (centres unmarked) [Compound 47, 4-(2-methylpyrrolidin-1-yl)-1-naphthonitrile hydrochloride]",116%,116%,88%,
